The values below come from US11311560B2, “Cyclic plasmenylethanolamines” (MED-LIFE DISCOVERIES LP, priority 2017, dated 2022).

One data set concerns Pex7 hypomorphic animals. The following applies: 50 mg/kg/day for 2 months; cited from earlier work.
Another data set has as its system Pex7 null animals. To be noted: very high doses (over 3000 mg/kg); cited from earlier work.
The subject of data set [1] is Pex7 homozygous hypomorphic animals (Pex7^neo/neo). Kind of data set: 2 week comparison of plasmalogen precursors: plasmalogen levels in plasma and liver (LC-MS). It is filed as in vivo, mouse. As to the method: Pex7 homozygous hypomorphic animals (Pex7^neo/neo) were used as a model of rhizomelic chondrodysplasia punctata (RCDP). Mice were dosed with either PPI-1011 or PPI-1040 at equimolar concentrations of 100 mg/Kg and 89.7 mg/Kg respectively. PPI-1011 was formulated in Neobee M-5, at a concentration of 12.5 mg/mL and stored at −20° C. until the first treatment day after which point the remaining formulation was stored at 4° C. Oral gavage volumes were adjusted by mouse weight to ensure a 100 mg/kg dose. PPI-1040 was stored in a sealed ampoule in solution with dichloromethane under argon gas until immediately before use. At time of treatment the ampoule was opened and dichloromethane was evaporated off under nitrogen gas for 10 minutes. Neobee M-5 was then added and the solution and vortexed to generate a 22.4 mg/mL formulation. Animals were dosed via intraperitoneal injections with doses adjusted by weight to ensure an 89.7 mg/Kg dose to each animal. Animals were sacrificed 24 hours after the ninth treatment (week 1-Monday to Friday and week 2-Monday to Thursday). Blood samples were collected in EDTA tubes and then spun down in a clinical centrifuge. Plasma samples were stored at −80° C. until thawed for analysis. Tissue samples were harvested and flash frozen in liquid nitrogen and then stored at −80° C. All tissue samples were homogenized using liquid nitrogen, generating a fine powder.
Plasma aliquots of 20 μL were analyzed, while tissues were aliquoted with anti-static polypropylene disposable milligram scoops prior to analysis. Water (200 μL) was added and samples were ice bath sonicated for 30 mins prior to the addition of 600 μL of ethyl acetate. Samples were mixed at 2000 rpm for 15 mins followed by a 10 min centrifugation at 3500 rpm. Tissue samples were diluted into an ethyl acetate (1:4) containing labeled internal standards [^13C-PlsEtn (C37^13C6H74NO7P) and ^13C-PtdEtn (C24^13C19H74NO8P)]. Water (80 μL) was added and samples were again stirred at 2000 rpm for 15 mins followed by a 2 min centrifugation at 3500 rpm. High-throughput analysis method was based on multiple reaction monitoring of one parent/fragment transition for the ion pairs, performed using liquid chromatography-mass spectrometry.

Data set [2] has as its system Pex7 hypomorph/null mice. The experiment in a line: 4 weeks oral treatment of Pex7 hypomorph/null animals: plasmalogen levels in plasma and tissues. The class given is in vivo, mouse. The following applies: 50 mg/kg oral gavage, 5 days per week. An excerpt:
(§1) The Pex7 hypomorph/null model is a hypomorphic (B6;129S6-Pex7^tm2.3Brav/s9) mouse model on a mixed background (C57BL/6NCrl and 129S6/SvEvTac). The hypomorphic allele in Pex7 hypomorph/null was generated by inserting an inverse neo cassette into intron 2 and lox P sites surrounding exon 3. The Pex7 null allele was generated using (B6.C-Tg(cmv-cre)1Cgn/J) mouse. The Pex7 hypomorph/null mouse model has 90% survival, 0.016-0.257% of wild type Pex7 mRNA levels and 20-30% plasmalogen levels Pex7 hypomoprh/null mice (3-4 months); and wild-type animals, males and females included in treatments and behavioral tests. Pex7 hypomorph/null mice were randomly assigned, after a baseline open field test, into 3 treatment groups: PPI-1040, PPI-1011, and vehicle controls, n=6 mice per group). PPI-1011 or PPI-1040 at 50 mg/kg was given by oral gavage 5 days per week (Monday-Friday) for 4 weeks. During the treatment period, animals were weighed weekly and observed for signs of distress. The open field test was performed at the end of treatment. To avoid selection bias, data analysis was performed only at the study end. Animals were sacrificed after a 24-hour post the last dose.
Tissue samples frozen by submersion in liquid nitrogen were homogenized using the Covaris Cryoprep resulting in a fine powder. The powder was then aliquoted using anti-static polypropylene disposable milligram scoops (TWD Tradewinds) resulting in 4-6 mg of tissue per 1.4 ml Thermo matrix tubes. Weights were recorded and metabolite levels were normalized per mg of tissue. HPLC grade water (50 μl) was added into each tube and samples were snap frozen in liquid nitrogen and then stored at −80° C. until extraction. On the day of the extraction, tissue samples were thawed to room temperate and sonicated for 15 mins in an ice bath before mixing at 2000 rpm for a 5 minute and then adding 600 μL of ethyl acetate. Lipids were extracted into ethyl acetate by mixing at 1750 rpm for 1 hr followed by a 10 min centrifugation at 3500 rpm to obtain a clear ethyl acetate layer. Tissue lipid extracts were diluted into an ethyl acetate stock (brain regions diluted 1:10, peripheral tissues 1:5) containing labeled internal standard [^13C-PlsEtn (C37^13C6H74NO7P). Water (40 μL) was added to the diluted extracts and samples were stirred at 1500 rpm for 1 hr followed by a 2 min centrifugation at 3500 rpm.
Plasma extraction was performed on 20 μL aliquots in 1.4 ml Thermo matrix tubes. Lipids were extracted by adding HPLC grade water (50 μl) and ethyl acetate containing labeled internal standard [^13C-PlsEtn (C37^13C6H74NO7P) at 0.2 μg/mL (500 μL) to each plasma sample and then mixing at 1750 rpm for 1 hr followed by a 2 min centrifugation at 3500 rpm for phase separation.
A 100 μL aliquot of the ethyl acetate layer was analyzed using FI-MS/MS on a API4000™ mass spectrometer (Applied Biosystems) coupled with Agilent 1100 HPLC pump and auto sampler. Each transition was scanned for 50 ms with a total acquisition time per sample of 2 min. ethyl acetate:methanol:water ratio of 80:15:5 at a flow rate of 600 μL/min was used as the mobile phase. All standards and stable isotopes used were >95% pure and manufactured by Med-Life Discoveries LP. All the solvents used above were HPLC grade. All samples were analyzed in triplicate to control for any variation resulting from instrument variability. Stable isotope ratios for each analyte were calculated for all tissue and plasma samples (Table 2).

The test system of data set [3] is Pex7 hypomorph/null mice. The experiment in a line: Open field test after 4 weeks oral treatment. It is filed as in vivo, mouse. To be noted: 50 mg/kg oral gavage, 5 days per week, 5 minutes test.
Excerpt: as §1
The open field test is a behavioral test used to evaluate the general locomotor activity, exploratory and anxiety-like behaviour of mice in response to a novel environment. The animal is placed inside a custom made square, gray acrylic box measuring 40×40×40 cm and allowed to move freely for 5 minutes while being recorded by an overhead camera (camera model). The footage was analyzed by an automated tracking system (Any-maze Video Tracking Software, Stoelting Co, Wood Dale, Ill., USA), for total distance traveled (meters) & activity (mobility in seconds) time. The total distance traveled is the total distance that animal traveled during the test and the activity measures the amount of time the animal was active during the test.

For data set [4] the following is noted: healthy animals; cited from earlier work.
Another data set relates to Pex7 hypomorphic mice. The following applies: 13C-labeled version of PPI-1011; cited from earlier work.
[5] abbreviates: PPI-1011 100 mg/Kg oral or PPI-1040 89.7 mg/Kg intraperitoneal, 2 weeks.

“Also recorded” adds a separate entry of the source.

In the case of `CCCCCCCCCCCCCCCCCCOCC(O)CO` (racemic) [Batyl alcohol, 1-O-octadecyl-rac glycerol], in the data set on Pex7 hypomorphic animals, the clinical improvement result is on record as “not associated with clinical improvement” and the “plasmalogen content in red blood cells” value is recorded as “partial increase”. Besides, in the data set with Pex7 null animals, the “plasmalogen levels in brain and nervous system tissues” value is reported as “very limited increases”; the “plasmalogen levels in erythrocytes and peripheral tissues” value was “augmentation of plasmalogen levels in erythrocytes and peripheral tissues”.
On to `CC/C=C\C/C=C\C/C=C\C/C=C\C/C=C\C/C=C\CCC(=O)OC(COCCCCCCCCCCCCCCCC)COC(=O)CCCC[C@@H]1CCSS1` (stereo partly shown) [PPI-1011, reference compound], for which the “levels of the target plasmalogen (16:0/22:6) in the plasma” value in data set [1] (PPI-1011 100 mg/Kg oral gavage, 2 weeks (9 treatments)) was “increase observed”. Further, in data set [1] (setting [5]), the “16:0 plasmalogen pool in liver” value is “no increase in this pool was observed” and the “target plasmalogen (16:0/22:6) levels in liver” value was “unable to augment levels to control levels”. Further, in the data set on Pex7 hypomorph/null mice [2], the liver plasmalogen levels result is listed as “did not increase the levels of any plasmalogen species in the liver”; the “plasma plasmalogen levels (all species measured)” value is “did not result in significant augmentation of any plasmalogen species measured; also recorded: ineffective at augmenting plasmalogen levels; also recorded: significantly below baseline”; the “plasmalogen levels in tissues (peripheral and brain)” value was “did not increase the levels of any plasmalogen species in any of the tissues tested”. In addition, in the data set with Pex7 hypomorph/null mice [3], the “open field: time active” value is “did not result in a decrease in activity levels” and the “open field: total distance traveled” value is listed as “did not result in a decrease in activity levels”. For the same molecule, in data set [4], the oral bioavailability result is “orally bioavailable”; the “plasma and tissue PlsEtn levels” value is “capable of augmenting plasma and tissue PlsEtn levels”. For the same molecule, in the data set on Pex7 hypomorphic mice, the “incorporation of labeled plasmalogen into nervous system tissue” value is given as “low”; the “incorporation of labeled plasmalogen into tissues” value was “incorporated into peripheral tissues, as well as the neocortex and eye”.
